Laboratory results as given in paper PMC10799709, “Characterization of a New Immunosuppressive and Antimicrobial Peptide, DRS-DA2, Isolated from the Mexican Frog, Pachymedusa dacnicolor” (International Journal of Inflammation, 2024).
In brackets after ≈: the same amount, converted by molar mass. Peptide text beside a SMILES is read from it.

Key:
[1] = system: S. aureus ATCC 700699 (MecA+); experiment: Antibacterial activity on skin multiresistant bacteria; assay type: cell-based; details: Staphylococcus aureus, ATCC700699
Method: (§1) The minimum inhibitory concentration (MIC) was determined by a liquid test in 96-well microplates as previously described. 100 µL of the sample to be tested was distributed in triplicate to obtain a range of final concentrations from 100 to 0.2 µM in the wells. 90 µL of bacterial suspension (5 × 10^5 CFU/mL for Gram-negative bacteria and 5 × 10^5 CFU/mL for Gram-positive strains in Mueller–Hinton broth) were added to each well [14]. The microtiter plates were incubated at 37°C overnight. The optical density of the wells was measured at […], and the results were interpreted by calculating the percentage of growth in each well according to the formula: % growth = (OD600 well − OD600 T0)/(OD600 of T100 − OD600 T0) ∗ 100, where OD600 T100 = DO600 growth control (bacterial suspension without the test sample, 100% growth), OD600 T0 = OD600 of sterility control (culture medium + […] 10 µL formaldehyde, 0% growth) well, and OD600 = OD600 of the well which was desired to calculate the percentage of growth (+ bacterial suspension test sample). MIC is the minimum concentration of the peptide that inhibits bacterial growth after incubation at 37°C for 20 hours.

[2] = system: S. epidermidis ST20140436 (MecA+); experiment: as above; assay type: cell-based; details: Staphylococcus epidermidis
Method: as §1

human leukocytes = experiment: Cytotoxic assay on human leukocytes (viability dye, flow cytometry); assay type: cell-based; details: 2 h, various concentrations
Excerpt: (§2) Human leukocytes were provided by the « Banco de Sangre del Hospital Regional del IMSS » and the Centro Estatal de la Transfusión Sanguínea in Cuernavaca, Morelos, Mexico. Institutional committees approved the acquisition and isolation of human peripheral blood leukocytes. Human leukocytes and erythrocytes were obtained as previously described. Mouse bone marrow cells (MBMCs) and erythrocytes were obtained from C57BL/6 or Balb/c mice. Mouse epithelial cells were isolated from C57Bl/6 mice, and human epithelial cells were recovered from surgery residues. In brief, intestinal tissues were minced and digested in 450-U/mL collagenase I, 125-U/mL collagenase XI, 60-U/mL hyaluronidase, and 60-U/mL DNAse for 1 hour before gradient density centrifugation on Histopaque-1083 (Sigma-Aldrich, St. Louis, MO). […]
(§3) 5.10^5 mouse or human leukocytes or primary epithelial cells, A549 or Jurkat E6-1 cells, were incubated in 100 µl RPMI or DMEM containing 0.5% BSA and […] with the peptides at different concentrations for 2 hours at 37°C, 5% CO2. […] Viability of leukocytes and Jurkat cells was determined by adding a viability dye (eFluor 780) and counted by FacsCanto flow cytometry with a predetermined number of beads (Polybead, Carboxylate Microspheres, Polysciences, Inc., Le Perray-en-Yvelines, France) added to the samples. […] Data were analyzed with FlowJo.

mouse leukocytes = experiment: Cytotoxic assay on mouse leukocytes (viability dye, flow cytometry); assay type: cell-based; details: 2 h, various concentrations
Excerpt: as §2, §3

Jurkat E6-1 cells = experiment: Apoptosis/necrosis assay (annexin V / eFluor 780); assay type: cell-based; details: Jurkat E6-1, 5 µM, 2 hours
Method: Induction of apoptosis or necrosis by the peptides was tested by incubating 5.10^5 Jurkat E6-1 cells in 200 µl RPMI containing 10% FBS and […] with the peptides at 5 µM for 2 hours at 37°C, 5% CO2. A positive control was obtained by exposing the cells to UV light for 10 min (1 mJ/cm^2, Stratagene UV Stratalinker 2400), before incubating them for 4 hours at 37°C, 5% CO2, RPMI 10% FBS. Cells were then washed, centrifuged, resuspended, and incubated 30 min at 4°C in the dark with Viability dye 780 (BioLegend). After washing the cells, Annexin-V-FITC in annexin-binding buffer was added, and the cells were incubated for 15 minutes at room temperature in the dark. The cells were fixed with PFA at a final dilution of 2% before being analyzed by FACSCanto flow cytometry.

[3] = system: Gram-positive and Gram-negative strains; experiment: Antibacterial properties on a series of strains; assay type: cell-based
Method: as §1
The minimum bactericidal concentration (MBC) is defined as the minimum concentration of the peptide killing 99.9% of bacteria after incubation at 37°C for 20 hours. […]

C57BL/6 mice = experiment: Thioglycolate-induced peritoneal inflammation (noninfectious peritonitis); assay type: in vivo, mouse; details: thioglycolate 3% i.p., 15 µg/injection i.p. at 14, 19 and 24 h, flow cytometry
Method: C57BL/6 mice were injected intraperitoneally with 1 mL 3% (wt/vol) thioglycolate (Sigma-Aldrich, l'Ile d'Abeau, France) dissolved in sterile NaCl and then 14, 19, and 24 hours later injected i.p. with DRS-DA2N or DRS-DA2NEQ (15 µg/injection). NaCl was used as a negative control. Twelve hours after the last injection, mice were killed, and 3 mL of cold PBS was injected i.p. to harvest peritoneal cells, which were then stained with anti-mouse Ly6G-PE, anti-mouse NK1.1-PE, anti-mouse CD11b-PerCP, and anti-mouse F4/80-APC (BD Biosciences, Rungis, France). Blood and bone marrow were also collected and stained with the same antibodies. Cells and beads were then counted by FACSCalibur flow cytometry, and data were analyzed with FlowJo. Cells being CD11b^hiLy6G^−NK1.1^− are considered to be monocytes (Mo), CD11b^hiLy6G^−NK1.1^− F4/80^+ macrophages (MΦ), and CD11b^hiLy6G^+NK1.1^− neutrophils (PMN).

[4] = Circular dichroism, percentage of helicity; assay type: physicochemical; details: POPE: POPG (75 : 25) LUVs, peptide/lipid 1/50, 10 mM Tris pH 7.4
Method: The CD spectra of the peptides were recorded as previously described. Measurements were carried out in 10 mM Tris buffer at pH 7.4 and in the presence of POPC, POPG, and POPG-POPC (25 : 75) LUVs or POPG-POPE (25 : 75) LUVS to mimic E. coli inner membrane composition at a peptide/lipid molar ratio of 1/50. Dichroic spectra were corrected by subtracting the background obtained for each peptide-free solution. An analysis of CD spectra was conducted after smoothing, and conversion to molar ellipticity was calculated as follows: […], where θobs is the observed ellipticity, n is the number of bonds, c is the peptide concentration in mol. L^−1, and l is the path length in cm.

[5] = system: Acinetobacter johnsonii (carbapenemase); experiment: Antibacterial activity on skin multiresistant bacteria; assay type: cell-based
Method: as §1

[6] = system: Propionibacterium acnes (clinical isolate), first listed; experiment: as above; assay type: cell-based; details: Cutibacterium acnes, first listed (r7)
Method: as §1

[7] = system: Propionibacterium acnes (clinical isolate), second listed; experiment: as above; assay type: cell-based; details: Cutibacterium acnes, second listed (r8)
Method: as §1

E. coli ATCC8739 = experiment: Time-kill assay; assay type: cell-based; details: E. coli ATCC8739, peptide at its MIC concentration, 37°C, CFU counting
Method: Time-killing experiments were achieved according to [18, 19] with minor modifications. The peptide's concentration was 1 × MIC and 2 × MIC. At the time points of 15, 30, 45, and 60 min and after homogenization, suspensions were diluted in 10 mM sodium phosphate buffer (pH 6.8) and spread onto MH agar plates. After overnight incubation at room temperature, CFUs were counted.

ANTS/DPX leakage assay = details: POPE/POPG (75 : 25) LUVs, 0.5 mM lipid, from Figure 10(c)
Method: The lipids 1-palmitoyl-2-oleoyl-sn-glycero-3-phospho-(1′-rac-glycerol) (POPG) and 1-palmitoyl-2-oleoyl-sn-glycero-3-phosphoethanolamine (POPE) were obtained from Avanti Polar Lipids, Inc., and used without further purification. Desired mixtures of phospholipids were first dried in glass tubes under nitrogen and then maintained under reduced pressure for at least 60 min. Lipid films were subsequently hydrated in PBS to yield a lipid concentration. The resulting dispersions were subjected to 5 freeze-thaw cycles by alternately placing the sample vial in a liquid nitrogen bath and a warm water bath (40°C). […]
The vesicles of POPE/POPG (75/25) at 25 mM concentration were obtained as previously described and suspended in a solution of 12.5 mM ANTS and 45 mM DPX in 10 mM HEPES. […] Final lipid concentration was measured by the method of Rouser.
To measure the leakage of DPX, the vesicles were diluted to a concentration of 0.5 mM lipid. […] ANTS fluorescence was monitored using a fluorimeter (excitation = 350 nm; emission = 530 nm) or a fluorescence plate reader (excitation filter wavelength/bandpass = 340/11; emission 530/25.
Fractional leakage was calculated as (Fsample − Finitial)/(Flysed−Finitial).

Work on `CC1(C)S[C@@H]2[C@H](NC(=O)[C@H](N)c3ccc(O)cc3)C(=O)N2[C@H]1C(=O)O` [amoxicillin] yielded an MIC [1] greater than 43.8 µM and an MIC [2] greater than 43.8 µM.
For `CSCC[C@H](NC(=O)[C@H](C)NC(=O)[C@H](C)NC(=O)[C@H](CCCCN)NC(=O)[C@@H](NC(=O)[C@H](CC(C)C)NC(=O)[C@@H](NC(=O)[C@H](CC(N)=O)NC(=O)CNC(=O)[C@@H](N)CCCCN)C(C)C)C(C)C)C(=O)N[C@@H](CC(C)C)C(=O)N[C@H](C(=O)N[C@@H](CCCCN)C(=O)N[C@H](C(=O)N[C@@H](CC(C)C)C(=O)N[C@@H](C)C(=O)N[C@@H](CCCCN)C(=O)N[C@@H](CC(N)=O)C(=O)N[C@@H](CCCCN)C(=O)NCC(=O)N[C@H](C(=O)N[C@@H](CCC(N)=O)C(=O)N[C@@H](CC(N)=O)C(=O)N[C@@H](C)C(=O)N[C@@H](CC(N)=O)C(=O)N[C@@H](C)C(=O)N[C@@H](CC(C)C)C(=O)N[C@H](C(=O)N[C@@H](Cc1c[nH]c2ccccc12)C(=O)O)[C@@H](C)O)C(C)C)C(C)C)[C@@H](C)O` [Scr] (H-KGNVLVKAAMLTKVLAKNKGVQNANALTW-OH; N-terminus and C-terminus assumed), the “induction of death of leukocyte populations” value (human leukocytes) was “did not induce the death”, the “induction of death of leukocyte populations” value (mouse leukocytes) was “did not induce the death” and the cell death (Jurkat E6-1 cells) was less than 4%. The “cells alive (A−V−)” value (Jurkat E6-1 cells) was “more than 96%”, the bacterial activity [3] was “did not exhibit any bacterial activity” and the “egress of inflammatory cells from the bone marrow and increase in blood after induction of peritonitis (systemic effect)” value (C57BL/6 mice) was “conserved”. For the same compound, the “percentage of helicity (CD)” value [4] was “remained unstructured”.
With `CC(C)(O/N=C(\C(=O)N[C@@H]1C(=O)N2C(C(=O)[O-])=C(C[n+]3ccccc3)CS[C@H]12)c1csc(N)n1)C(=O)O` [ceftazidime] the MIC [5] was greater than 29.3 µM.
Compound `C[C@H]1c2cccc(O)c2C(=O)C2=C(O)[C@]3(O)C(=O)C(C(N)=O)=C(O)[C@@H](N(C)C)[C@@H]3[C@@H](O)[C@@H]21` [doxycycline] has an MIC [6] of 0.13 µM (≈ 0.0578 µg/mL) and an MIC [7] of 0.27 µM (≈ 0.12 µg/mL).
With omiganan the “incubation time after which all the bacteria were killed” value (E. coli ATCC8739) was “needed a much longer time to be active” and the “LIC50 (peptide concentration required to induce 50% leakage)” value (ANTS/DPX leakage assay) was “No leakage”.
